Molecular target: T1, murine P-glycoprotein (P-gp, ABCB1; abcb1a, mdr3) (Mus musculus, UniProt P21447)
T1 construct: opti-mdr3 gene product expressed in P. pastoris, purified in DDM
Test: thermostability shift of purified protein (static light scattering, tryptophan fluorescence, CPM dye) giving KD; cryo-EM with additional density (map a)
Type: binding

T1 sequence (P21447 whole entry): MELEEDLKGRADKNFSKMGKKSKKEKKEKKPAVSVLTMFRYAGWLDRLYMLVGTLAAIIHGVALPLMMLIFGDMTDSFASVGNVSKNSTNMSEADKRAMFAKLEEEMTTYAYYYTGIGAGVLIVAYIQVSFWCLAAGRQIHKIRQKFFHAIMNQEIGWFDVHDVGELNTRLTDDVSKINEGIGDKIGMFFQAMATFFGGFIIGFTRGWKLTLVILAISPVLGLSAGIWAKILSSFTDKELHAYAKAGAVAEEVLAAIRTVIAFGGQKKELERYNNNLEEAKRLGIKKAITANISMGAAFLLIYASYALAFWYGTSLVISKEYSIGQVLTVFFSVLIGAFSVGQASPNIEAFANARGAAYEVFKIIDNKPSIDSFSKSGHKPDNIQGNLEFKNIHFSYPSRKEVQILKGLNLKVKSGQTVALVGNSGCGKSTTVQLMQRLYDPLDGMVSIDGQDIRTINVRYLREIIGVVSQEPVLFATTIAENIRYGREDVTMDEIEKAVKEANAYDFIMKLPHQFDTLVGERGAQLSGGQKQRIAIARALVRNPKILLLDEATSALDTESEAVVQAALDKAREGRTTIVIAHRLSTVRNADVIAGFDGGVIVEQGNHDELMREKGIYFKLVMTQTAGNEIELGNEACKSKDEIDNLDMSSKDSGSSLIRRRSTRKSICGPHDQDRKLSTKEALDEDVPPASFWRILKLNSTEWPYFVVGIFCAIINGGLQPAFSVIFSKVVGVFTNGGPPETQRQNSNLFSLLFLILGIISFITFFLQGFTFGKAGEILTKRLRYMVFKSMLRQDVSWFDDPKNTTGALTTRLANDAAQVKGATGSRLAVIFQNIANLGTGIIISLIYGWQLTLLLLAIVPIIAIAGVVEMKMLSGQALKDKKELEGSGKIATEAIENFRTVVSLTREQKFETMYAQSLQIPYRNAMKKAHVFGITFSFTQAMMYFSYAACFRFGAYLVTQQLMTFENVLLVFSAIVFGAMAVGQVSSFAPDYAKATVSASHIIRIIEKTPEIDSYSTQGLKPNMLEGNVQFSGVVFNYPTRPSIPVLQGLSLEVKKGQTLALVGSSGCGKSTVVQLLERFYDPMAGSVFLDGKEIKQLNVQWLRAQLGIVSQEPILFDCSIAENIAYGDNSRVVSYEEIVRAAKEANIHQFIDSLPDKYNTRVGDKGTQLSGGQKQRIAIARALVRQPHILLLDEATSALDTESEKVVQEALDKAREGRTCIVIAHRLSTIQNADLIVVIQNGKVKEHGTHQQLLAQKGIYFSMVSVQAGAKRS

SMILES: CC(C)(C)c1cc(C(C)(C)C)c(NC(=O)c2c[nH]c3ccccc3c2=O)cc1O [ivacaftor]
- Kd: 200 nM
